Assay results: the NIST ThermoML archive (doi:10.1016/j.jct.2016.04.024)
± gives the expanded uncertainty stated by the source.

Tests used:
[1] = 100 kPa, Liquid; for speed of sound: Frequency=3 MHz, Sing-around technique in a fixed-path interferometer; for mass density: Vibrating tube method
[2] = xn = mol fraction of the nth substance listed; conditions: 100 kPa, Liquid; for speed of sound: Frequency=3 MHz, Sing-around technique in a fixed-path interferometer; for mass density: Vibrating tube method

CCCCn1cc[n+](C)c1.F[B-](F)(F)F [1-butyl-3-methylimidazolium tetrafluoroborate]
[1], 293.15 K
Conditions | mass density [kg/m3] | speed of sound [m/s]
– | 1203.63 ± 1.1 | 1577.5 ± 1.6

CCCCn1cc[n+](C)c1.F[B-](F)(F)F [1-butyl-3-methylimidazolium tetrafluoroborate] + Nc1ccccc1
[2], x1 = 1
Conditions | mass density [kg/m3] | speed of sound [m/s]
293.15 K | 1203.63 ± 1.1 | 1577.5 ± 1.6
303.15 K | 1195.18 ± 1.1 | 1553.2 ± 1.6
313.15 K | 1188.04 ± 1.1 | 1529.7 ± 1.6
323.15 K | 1180.98 ± 1.1 | 1506.8 ± 1.6

Nc1ccccc1 [aniline]
[1]
Conditions | mass density [kg/m3] | speed of sound [m/s]
293.15 K | 1021.69 ± 1 | 1656.8 ± 1.3
303.15 K | 1013.04 ± 1 | 1618.3 ± 1.3
313.15 K | 1004.36 ± 1 | 1580 ± 1.3
323.15 K | 995.66 ± 1 | 1541.9 ± 1.3

Nc1ccccc1 [aniline] + CCCCn1cc[n+](C)c1.F[B-](F)(F)F
[2]
Conditions | mass density, 293.15 K [kg/m3] | mass density, 303.15 K [kg/m3] | mass density, 313.15 K [kg/m3] | mass density, 323.15 K [kg/m3] | speed of sound, 293.15 K [m/s] | speed of sound, 303.15 K [m/s] | speed of sound, 313.15 K [m/s] | speed of sound, 323.15 K [m/s]
x2 = 0 | 1021.69 ± 1 | 1013.04 ± 1 | 1004.36 ± 1 | 995.66 ± 1 | 1656.8 ± 1.3 | 1618.3 ± 1.3 | 1580 ± 1.3 | 1541.9 ± 1.3
x2 = 0.1001 | 1058.27 ± 1.5 | 1050.3 ± 1.4 | 1042.33 ± 1.4 | 1034.33 ± 1.4 | 1661 ± 1.4 | 1626.5 ± 1.4 | 1592 ± 1.4 | 1557.7 ± 1.3
x2 = 0.2028 | – | – | – | 1068.14 ± 1.5 | – | – | – | 1569.8 ± 1.4
x2 = 0.4991 | 1150.32 ± 1.5 | 1143.1 ± 1.5 | 1135.81 ± 1.5 | 1128.64 ± 1.5 | 1624.8 ± 1.4 | 1598.3 ± 1.4 | 1571.9 ± 1.4 | 1546.1 ± 1.4
x2 = 0.6032 | 1163.88 ± 1.6 | 1156.61 ± 1.6 | 1149.6 ± 1.5 | 1142.78 ± 1.5 | 1610.6 ± 1.5 | 1584.8 ± 1.5 | 1559.4 ± 1.5 | 1534.7 ± 1.5
x2 = 0.7021 | 1175.38 ± 1.6 | 1168.21 ± 1.6 | 1161.22 ± 1.6 | 1154.4 ± 1.6 | 1599.8 ± 1.5 | 1574.8 ± 1.5 | 1549.2 ± 1.5 | 1525.1 ± 1.5
x2 = 0.7907 | 1184.36 ± 1.6 | 1177.25 ± 1.6 | 1170.51 ± 1.6 | 1163.73 ± 1.6 | 1592.7 ± 1.5 | 1568.5 ± 1.5 | 1540.8 ± 1.5 | 1518.5 ± 1.5
x2 = 0.9026 | 1194.78 ± 1.6 | 1187.71 ± 1.6 | 1180.84 ± 1.6 | 1173.92 ± 1.6 | 1584.1 ± 1.6 | 1559.7 ± 1.6 | 1535.8 ± 1.6 | 1512.4 ± 1.5
